Data taken from patent publication US20100184727A1, “TREATMENT OF EXCESS SEBUM PRODUCTION” (SUMMIT (CAMBRIDGE) LIMITED, priority 2006, published 2010).
≈ marks a conversion by molar mass, not a printed value. Where a name gives a salt, the structure may show the parent alone. Read-outs that look alike come from different tables or passages of the source.

Legend:
[1] = system: Propionibacterium acnes NCTC 737; experiment: MIC/MBC 96-well plate broth micro-dilution assay; assay type: cell-based; details: for MBC / MIC: Cutibacterium acnes
Protocol: The anaerobic cutaneous propionibacteria e.g. Propionibacterium acnes are implicated in the pathogenesis of acne vulgaris. The test organism Propionibacterium acnes is classified as a ‘Type’ strain for the species. […] MIC determinations were carried out using a standard 96-well plate broth micro-dilution assay. Wilkins-Chalgren anaerobe broth at pH 6 and pH 7.1±0.2 was used for P. acnes. […] The test range for the control compounds varied depending on known activity levels. […] Benzoyl peroxide and erythromycin were used as control compounds in P. acnes assays. Benzoyl peroxide and erythromycin were both dissolved in ethanol.

[2] = system: sebum production; experiment: Sebum production study in healthy male volunteers (Sebumeter); assay type: in vivo; details: for Sebum Production Maximum % Reduction LS Means: compared to placebo, healthy male volunteers
Protocol: The study examined the effects of oxybutynin on sebum production in 9 healthy male volunteers. This was double-blind, randomised, placebo-controlled dose study
The subjects were assessed on each dosing occasion for sebum production pre-dose and 1 h, 2.5 h, 4 h and 6 h post-dose. Skin sebum excretion rates were determined using a Sebumeter® (Optical measurement of sebum excretion using opalescent film imprint, 2006, Handbook of non-invasive methods and the skin, Second Edition). Vital signs were recorded at specified times during each study period and adverse events were reported throughout.
For each subject, the maximum % reduction in sebum production compared to placebo was calculated for each dose level. Using this information, a mixed effects regression analysis of the % reduction in sebum versus dose with subject as a random effect was performed.

[3] = NCTC737, pH 6, Wilkins-Chalgren agar, mean of minimum 4 replicates, read-out: MBC
[4] = NCTC737, pH 6, Wilkins-Chalgren anaerobe broth, mean of minimum 4 replicates, read-out: MIC
[5] = NCTC737, pH 7.1 ± 0.2, Wilkins-Chalgren agar, mean of minimum 4 replicates, read-out: MBC
[6] = NCTC737, pH 7.1 ± 0.2, Wilkins-Chalgren anaerobe broth, mean of minimum 4 replicates, read-out: MIC

SMILES | MIC [1, 4] [mg/L] | MIC [1, 6] [mg/L] | MBC [1, 3] [mg/L] | MBC [1, 5] [mg/L] | Antimicrobial activity against P. acnes (in words) ([1]; pH 6) | Antimicrobial activity against P. acnes (in words) ([1]; pH 7.1±0.2) | other results
O=C(OOC(=O)c1ccccc1)c1ccccc1 [Benzoyl peroxide] |  |  |  |  |  |  | MBC ([1]; NCTC737, pH 6): 62.5 mg/L (≈ 258 µM); MIC ([1]; NCTC737, pH 6): 31.2 mg/L (≈ 129 µM); MBC ([1]; NCTC737, pH 7.1): 62.5 mg/L (≈ 258 µM); MIC ([1]; NCTC737, pH 7.1): 31.2 mg/L (≈ 129 µM)
CC[C@H]1OC(=O)[C@H](C)[C@@H](O[C@H]2C[C@@](C)(OC)[C@@H](O)[C@H](C)O2)[C@H](C)[C@@H](O[C@@H]2O[C@H](C)C[C@H](N(C)C)[C@H]2O)[C@](C)(O)C[C@@H](C)C(=O)[C@H](C)[C@@H](O)[C@]1(C)O [Erythromycin] | 0.63 (≈ 0.858 µM) | 0.313 (≈ 0.426 µM) | > 2.5 | > 2.5 |  |  | 
CCN(CC)CC#CCOC(=O)C(O)(c1ccccc1)C1CCCCC1 (stereo not shown) [oxybutynin] |  |  |  |  |  |  | Sebum Production Maximum % Reduction LS Means ([2]; dose 1 mg): 21.59%; Sebum Production Maximum % Reduction LS Means ([2]; dose 2 mg): −16.94%; Sebum Production Maximum % Reduction LS Means ([2]; dose 5 mg): −34.74%; Sebum Production Maximum % Reduction LS Means ([2]; dose 10 mg): −75.52%; Effect on sebum production (in words) ([2]; following administration of 2 mg, 5 mg and 10 mg): decreased with dose

Continued, in another order:

MIC [1, 4] [mg/L] | MIC [1, 6] [mg/L] | SMILES | MBC [1, 3] [mg/L] | MBC [1, 5] [mg/L] | Antimicrobial activity against P. acnes (in words) ([1]; pH 6) | Antimicrobial activity against P. acnes (in words) ([1]; pH 7.1±0.2) | other results
500 | 500 | NC(=O)C(c1ccccc1)(c1ccccc1)[C@@H]1CCN(CCc2ccc3c(c2)CCO3)C1 [Darifenacin hydrobromide, darifenacin hydrobromide] | 1000 | 500 | some moderate antimicrobial activity | some moderate antimicrobial activity | 
500 | 500 | CCN(CC)CC#CCOC(=O)C(O)(c1ccccc1)C1CCCCC1 (stereo not shown) [Oxybutynin chloride, oxybutynin chloride] | 1000 | 500 | some moderate antimicrobial activity | some moderate antimicrobial activity | 
